Experimental data taken from article PMC10428205, “Cytotoxicity of Ruthenium(II) Arene Complexes Containing Functionalized Ferrocenyl β-Diketonate Ligands” (Organometallics, 2023).

How the values were obtained:
ARPE-19 = experiment: 96 h MTT chemosensitivity assay, normal cells; assay type: cell-based, human; conditions: normal retinal epithelial cells, ± SD, read-out: IC50 against ARPE-19
Description: (§1) LogP = Log ( [C]final ) Eqn1
(§2) 96 h Chemosensitivity Studies
(§3) In vitro chemosensitivity tests were performed at both the University of Huddersfield and the Institute of Cancer Therapeutics, Bradford, in a sterile Class II Biological Safety Cabinet fitted with a HEPA filtered laminar airflow.
Cellular assays were conducted against human pancreatic carcinoma (MIA PaCa-2), human colorectal carcinoma p53-wildtype (HCT116 p53+/+), and human non-cancerous epithelial retinal cells (ARPE-19). The ARPE-19 cells were obtained from the American Type Culture Collection and provided by the University of Huddersfield. All cell lines were routinely maintained as monolayer cultures in appropriate complete medium and maintained in either T-25 or T-75 flasks at 37 °C and 5% CO2. MIA PaCa-2 and ARPE-19 cells were cultured in high glucose DMEM-F12 medium containing 10% foetal calf serum, and HCT116 p53+/+ was cultured in RPMI 1640 supplemented with 10% foetal calf serum. All medium was supplemented with sodium pyruvate (1 mM) and L-glutamine (2 mM), and prior to chemosensitivity studies, cell monolayers were passaged using Trypsin-EDTA and diluted to a concentration of 1 x 10^4 cells/mL. All assays were conducted using 96-well plates, in which […] of the 1 x 10^4 cells/mL cell suspension was added to each well and incubated for 24 h at 37 °C and 5% CO2. […] After mixing well, the absorbance of each well was measured at 540 nm using a ThermoFisher Multiskan FC spectrophotometer microplate reader. Using the blank and 100% cell controls, the % cell viability was determined [(abs. of compound containing wells – abs. media wells)/(abs. 100% cell suspension well control)] and from this the % cell death (100%- % cell viability) was calculated. On a logarithmic scale, the percentage cell death was plotted against the concentration of compound, and from this the half maximal inhibitory concentration (IC50) value was determined. […]

HCT116 p53+/+ = experiment: 96 h MTT chemosensitivity assay; assay type: cell-based, human
Description: as §1, §2, §3
Cellular assays were conducted against human pancreatic carcinoma (MIA PaCa-2), human colorectal carcinoma p53-wildtype (HCT116 p53+/+), and human non-cancerous epithelial retinal cells (ARPE-19). The ARPE-19 cells were obtained from the American Type Culture Collection and provided by the University of Huddersfield. All cell lines were routinely maintained as monolayer cultures in appropriate complete medium and maintained in either T-25 or T-75 flasks at 37 °C and 5% CO2. MIA PaCa-2 and ARPE-19 cells were cultured in high glucose DMEM-F12 medium containing 10% foetal calf serum, and HCT116 p53+/+ was cultured in RPMI 1640 supplemented with 10% foetal calf serum. All medium was supplemented with sodium pyruvate (1 mM) and L-glutamine (2 mM), and prior to chemosensitivity studies, cell monolayers were passaged using Trypsin-EDTA and diluted to a concentration of 1 x 10^4 cells/mL. All assays were conducted using 96-well plates, in which […] of the 1 x 10^4 cells/mL cell suspension was added to each well and incubated for 24 h at 37 °C and 5% CO2. After 24 h, 100 mL of drug dilutions (fresh 100 mM stock solutions in DMSO) in media were added to the plates and then incubated for a further 96 h at 37°C and 5% CO2 (48 h + 48 h recovery period were used for the shorter exposures with MIA PaCa-2 cells only). After 96 h, 20 mL MTT (3-(4,5-dimethylthiazol-2-yl)-2,5-diphenyltetrazolium bromide, 5 mg/mL) was added to each well and incubated for 3 h at 37 °C and 5% CO2. All solutions were then removed from the 96-well plates via pipette and […] of DMSO added to each well to dissolve the purple formazan crystals. After mixing well, the absorbance of each well was measured at 540 nm using a ThermoFisher Multiskan FC spectrophotometer microplate reader. Using the blank and 100% cell controls, the % cell viability was determined [(abs. of compound containing wells – abs. media wells)/(abs. 100% cell suspension well control)] and from this the % cell death (100%- % cell viability) was calculated. On a logarithmic scale, the percentage cell death was plotted against the concentration of compound, and from this the half maximal inhibitory concentration (IC50) value was determined. Each of the experiments were performed in triplicate with mean values being stated as the IC50 ± Standard Deviation (SD). […]
(§4) All assays were conducted in triplicate.

[1] = Hydrophobicity, octanol-water shake-flask; assay type: physicochemical
Description: curves to give an average concentration for shaken samples ([C]final). The concentration of an unshaken sample
of stock solution was determined to give [C]initial. The partition coefficient (LogP) was determined with by Eqn1. […]
as §4

MIA PaCa-2 = experiment: Whole cell uptake by ICP-MS; assay type: cell-based, human; conditions: MIA PaCa-2, 10 μM, 48 h; for Whole cell uptake of Fe: ICP-MS
Description: Cellular assays were conducted against human pancreatic carcinoma (MIA PaCa-2), human colorectal carcinoma p53-wildtype (HCT116 p53+/+), and human non-cancerous epithelial retinal cells (ARPE-19). The ARPE-19 cells were obtained from the American Type Culture Collection and provided by the University of Huddersfield. All cell lines were routinely maintained as monolayer cultures in appropriate complete medium and maintained in either T-25 or T-75 flasks at 37 °C and 5% CO2. MIA PaCa-2 and ARPE-19 cells were cultured in high glucose DMEM-F12 medium containing 10% foetal calf serum, and HCT116 p53+/+ was cultured in RPMI 1640 supplemented with […]
10% foetal calf serum. […]
Cell uptake assays were conducted using MIA PaCa-2 cells and these were maintained as described above. All assays were conducted in 6-well plates and cell concentrations of 1 x 10^5 cells/ well in 2 mL of complete cell media. These cell suspensions were added to the wells and incubated at 37°C and 5% CO2 for 24 h. The media was then removed, and 2 mL of media/copper compound was added to each well. For each compound, a concentration of 10 µM of ligands L1, L2, L4, L7 or complexes C1, C2, C4, C7 were used. The cells were incubated with the complexes for 48 h, before removing and discarding the media. The cell monolayers were then individually washed with PBS (3 x 1 mL) and all waste discarded. 0.25% Trypsin-EDTA (0.5 mL) was then added until the cells were removed from the surface of the wells and then diluted with media (1.5 mL). The contents of each well were transferred to separate Falcon tubes and centrifuged at 1500 rpm for 5 min. The supernatant was removed, the cell pellets were resuspended in PBS (1 mL) and centrifuged again at 1500 rpm for 5 min (this was completed 3 times). On the final time, the cells were counted before the last centrifuge and then pelleted and store in the freezer for ICP-MS analysis. All assays were conducted in triplicate.
Samples were then taken up in Optima high purity nitric acid, diluted to 10 mL with 1mL rhodium internal standard and 9 mL 18.2 Ultrapure water. The elemental contents of the samples were determined using ICP-MS-QQQ Thermo TQ spectrometer. Measurement of iron mass 56 and ruthenium isotope mass 100 was conducted by comparing solutions of known concentration and intensities. A series of standard calibration curves allows the concentration of each element to be determined. The standards were prepared by weight using 1000 mg/kg reference solutions. Operating conditions: cooling flow rate, 14.0 L/min, auxiliary gas flow rate, 0.8 L/min; sampling Depth 5 mm, additional gas flow 75 %, spray chamber 2.7 degrees, nebulizer flow rate, 1.144 L/min pump speed 15 rpm, RF power of 1,550 W.
Analysis of cellula r DNA damage by the Comet assay […]

[NH2][Pt]([NH2])([Cl])[Cl] [CDDP, cisplatin, reference compound]
IC50 (ARPE-19): 6 ± 1 µM
Selectivity index (SI), IC50 ARPE-19 / IC50 HCT116 p53+/+ (HCT116 p53+/+; 96 h, * = minimum value as at least one IC50 > 100): 1.8
IC50 (HCT116 p53+/+; 96 h MTT, ± SD, read-out: IC50 against HCT116 p53+/+): 3.3 ± 0.4 µM
LogP [1]: -2.20 ± 0.20

CC(O)=CC(=O)[c-]1cccc1.[Fe+2].c1cc[cH-]c1 [Complex L1]
Whole cell uptake of Fe (MIA PaCa-2): 2661 ± 974 ng Fe/10^6 cells

O=C(C=C(O)c1ccccc1)[c-]1cccc1.[Fe+2].c1cc[cH-]c1 [Complex L2]
Whole cell uptake of Fe (MIA PaCa-2): 2524 ± 458 ng Fe/10^6 cells

O=C(C=C(O)C(F)(F)F)[c-]1cccc1.[Fe+2].c1cc[cH-]c1 [Complex L7]
increase in Fe uptake compared to the control (MIA PaCa-2): ca. 1.7 ×
Whole cell uptake of Fe (MIA PaCa-2): 1536 ± 202 ng Fe/10^6 cells
